Data published in patent publication US6555356B2, “Methods for microbial regulation” (Unisearch Limited, priority 1995, dated 2003).

Experiments:
Helminthosporium sp. = assay: Fungal growth inhibition zone assay, Helminthosporium sp.; type: cell-based
Method: (§1) In addition to the tests described above, the effects of selected compounds of the general formula 2 on growth of bacteria, one yeast (Candida albicans) and one fungus (Helminthosporium sp.) were assessed. Bacteria were grown in liquid media in the presence of different concentrations of furanones and growth measured via changes in optical density (OD). Fungal assays were done by inoculating agar plates with spores. These plates contained different concentrations of furanone compounds in wells within the plates. Zones of inhibition around these wells were measured after 48 hours.

Candida albicans = assay: Fungal growth inhibition zone assay, Candida albicans; type: cell-based
Method: as §1

Structure (SMILES) | width of inhibition zone (Helminthosporium sp.; amount added 0.1 μg) [mm] | width of inhibition zone (Helminthosporium sp.; amount added 1 μg) | width of inhibition zone (Helminthosporium sp.; amount added 10 μg) | width of inhibition zone (Helminthosporium sp.; amount added 100 μg) | width of inhibition zone (Candida albicans; amount added 0.1 μg) | width of inhibition zone (Candida albicans; amount added 1 μg) | width of inhibition zone (Candida albicans; amount added 10 μg) | width of inhibition zone (Candida albicans; amount added 100 μg)
C[C@@H]1[C@H](O)[C@@H](C)/C=C/C=C/C=C/C=C/C=C/C=C/C=C/[C@H](O[C@@H]2O[C@H](C)[C@@H](O)[C@H](N)[C@@H]2O)C[C@@H]2O[C@](O)(C[C@@H](O)C[C@@H](O)[C@H](O)CC[C@@H](O)C[C@@H](O)CC(=O)O[C@H]1C)C[C@H](O)[C@H]2C(=O)O [Amphotericin B, reference compound] | 2 | 6 mm | 6-8 mm | 7-10 mm | 2-4 mm | 5-7 mm | 6-10 mm | 1.14 mm
CCCCC1=CC(=C(Br)Br)OC1=O [Compound 8] | 0 | 0 mm | 0 mm | 20 mm | 0 mm | 0 mm | 0 mm | 0 mm
CCCC(OC(C)=O)C1=C(Br)C(=CI)OC1=O (centres unmarked) [Compound 5] | 0 | 2-4 mm | 9-13 mm | 20 mm | 0 mm | 0 mm | 1 mm | 3-8 mm
CCCCCCC1=CC(=C(Br)Br)OC1=O [Compound 13] | 0 | 0 mm | 0 mm | 0 mm | 0 mm | 0 mm | 0 mm | 1 mm
